# Results as given in patent publication US12161829B2 (OCON MEDICAL LTD., priority 2020, dated 2024).
# System: endometrium
# Description: Efforts were made to recruit an equal number of women with high endometrial thickness (>7 mm) and low endometrial thickness (<7 mm). On the day of surgery, the subject underwent a vaginal ultrasound, to re-measure the endometrial thickness, and hysteroscopy, to visualize the uterine cavity and the endometrium.
# After surgery, the extracted uterus was immediately evaluated by the study pathologist for gross pathology and silver nitrate coverage of the endometrium and was later subjected to pathology (macroscopic analyses of the intra-uterine cavity and microscopic analyses of the multiple sections of the uteri) histopathological evaluations to define the extent of active material endometrium coverage and endometrial ablation.
smiles,measurement,setting,value
O=[N+]([O-])[O-].[Ag+] [silver nitrate],Staining of / spillage via the fallopian tubes,"30 minutes in uterus, extracted uterus",No staining of the fallopian tubes
same,Cervix findings,histology,"superficial silver nitrate staining, with no damage to the columnar epithelium and no pathological findings"
same,Cauterization effect,overall conclusion,elicited the expected cauterization effect
